Experimental data from ChEMBL document CHEMBL3352522 (Bioorg Med Chem Lett, 2014).
Active and inactive are the calls of the source. No cut-off for these calls is given here.

Key:
[1] = biological target: T1, Peroxisome proliferator-activated receptor delta (Homo sapiens) (UniProt Q03181); assay: Activation of human PPARbeta ligand binding domain expressed in COS7 cells assessed as residual activity at 10 uM by luciferase reporter gene assay; assay type: cell-based; details: COS-7
T1 sequence (whole entry): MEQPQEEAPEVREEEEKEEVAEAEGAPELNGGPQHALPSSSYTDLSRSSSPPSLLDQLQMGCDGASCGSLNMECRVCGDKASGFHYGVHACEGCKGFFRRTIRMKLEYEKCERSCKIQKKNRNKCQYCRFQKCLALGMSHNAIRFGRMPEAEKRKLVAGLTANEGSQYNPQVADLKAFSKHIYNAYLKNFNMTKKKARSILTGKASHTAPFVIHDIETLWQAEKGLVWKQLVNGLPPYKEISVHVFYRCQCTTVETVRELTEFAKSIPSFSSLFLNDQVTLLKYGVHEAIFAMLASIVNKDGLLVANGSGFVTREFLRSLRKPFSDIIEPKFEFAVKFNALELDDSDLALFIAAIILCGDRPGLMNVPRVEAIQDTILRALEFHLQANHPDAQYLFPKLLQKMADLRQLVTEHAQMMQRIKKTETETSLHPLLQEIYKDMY

[2] = biological target: T2, Peroxisome proliferator-activated receptor gamma (Homo sapiens) (UniProt P37231); assay: Activation of human PPARgamma ligand binding domain expressed in COS7 cells by luciferase reporter gene assay relative to pioglitazone; assay type: cell-based; parameters: concentration or dose not given beside the values; details: COS-7
T2 sequence (whole entry): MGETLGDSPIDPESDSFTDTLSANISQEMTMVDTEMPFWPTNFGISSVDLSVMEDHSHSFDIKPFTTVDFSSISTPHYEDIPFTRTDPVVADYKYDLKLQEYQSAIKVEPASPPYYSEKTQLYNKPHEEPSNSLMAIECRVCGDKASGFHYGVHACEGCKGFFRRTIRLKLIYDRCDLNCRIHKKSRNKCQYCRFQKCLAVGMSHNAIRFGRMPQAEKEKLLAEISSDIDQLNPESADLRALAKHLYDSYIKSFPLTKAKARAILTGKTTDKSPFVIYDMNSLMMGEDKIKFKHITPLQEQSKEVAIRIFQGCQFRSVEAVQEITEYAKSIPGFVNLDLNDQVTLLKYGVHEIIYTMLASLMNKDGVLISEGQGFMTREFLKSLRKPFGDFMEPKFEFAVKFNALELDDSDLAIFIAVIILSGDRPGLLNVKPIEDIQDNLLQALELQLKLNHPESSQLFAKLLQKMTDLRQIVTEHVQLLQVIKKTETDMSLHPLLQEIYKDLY

[3] = biological target: T3, Peroxisome proliferator-activated receptor alpha (Homo sapiens) (UniProt Q07869); assay: Activation of human PPARalpha ligand binding domain expressed in COS7 cells by luciferase reporter gene assay relative to GW7647; assay type: cell-based; parameters: concentration or dose not given beside the values; details: COS-7
T3 sequence (whole entry): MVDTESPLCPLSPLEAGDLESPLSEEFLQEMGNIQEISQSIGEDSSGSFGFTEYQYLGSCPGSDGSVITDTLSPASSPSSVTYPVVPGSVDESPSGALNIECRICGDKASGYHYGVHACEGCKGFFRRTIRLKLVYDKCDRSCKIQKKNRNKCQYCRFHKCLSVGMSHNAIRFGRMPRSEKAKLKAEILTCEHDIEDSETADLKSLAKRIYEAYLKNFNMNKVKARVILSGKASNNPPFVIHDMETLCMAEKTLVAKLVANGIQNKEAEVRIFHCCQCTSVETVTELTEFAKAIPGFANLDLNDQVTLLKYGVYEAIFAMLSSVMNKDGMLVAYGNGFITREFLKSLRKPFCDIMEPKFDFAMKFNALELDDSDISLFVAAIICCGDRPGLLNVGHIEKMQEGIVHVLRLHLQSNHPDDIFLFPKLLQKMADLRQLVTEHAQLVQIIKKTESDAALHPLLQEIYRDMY

[4] = biological target: T4, Peroxisome proliferator-activated receptor alpha (Homo sapiens, UniProt Q07869); assay: Activation of human PPARalpha ligand binding domain expressed in COS7 cells by luciferase reporter gene assay; assay type: cell-based, COS-7
T4 sequence (Q07869 whole entry): T3 sequence (whole entry)

[5] = biological target: T5, Peroxisome proliferator-activated receptor gamma (Homo sapiens, UniProt P37231); assay: Activation of human PPARgamma ligand binding domain expressed in COS7 cells by luciferase reporter gene assay; assay type: cell-based, COS-7
T5 sequence (P37231 whole entry): T2 sequence (whole entry)

[6] = biological target: T1, Peroxisome proliferator-activated receptor delta (Homo sapiens); assay: Activation of human PPARbeta ligand binding domain expressed in COS7 cells assessed as residual activity at 3 uM by luciferase reporter gene assay; assay type: cell-based; details: COS-7
[7] = biological target: T3, Peroxisome proliferator-activated receptor alpha (Homo sapiens); assay: Activation of human PPARalpha ligand binding domain expressed in COS7 cells assessed as residual activity at 3 uM by luciferase reporter gene assay relative to GW7647; assay type: cell-based; details: COS-7
[8] = biological target: T3, Peroxisome proliferator-activated receptor alpha (Homo sapiens); assay: Activation of human PPARalpha ligand binding domain expressed in COS7 cells assessed as residual activity at 10 uM by luciferase reporter gene assay relative to GW7647; assay type: cell-based; details: COS-7
[9] = biological target: T3, Peroxisome proliferator-activated receptor alpha (Homo sapiens); assay: Activation of human PPARalpha ligand binding domain expressed in COS7 cells assessed as residual activity at 6 uM by luciferase reporter gene assay relative to GW7647; assay type: cell-based; details: COS-7
[10] = biological target: T6, Prostaglandin E synthase (Homo sapiens, UniProt O14684); assay: Inhibition of mPGES-1 in human A549 cells microsomes assessed as reduction in PGE2 formation by RP-HPLC assay; assay type: cell-based
T6 sequence (O14684 whole entry): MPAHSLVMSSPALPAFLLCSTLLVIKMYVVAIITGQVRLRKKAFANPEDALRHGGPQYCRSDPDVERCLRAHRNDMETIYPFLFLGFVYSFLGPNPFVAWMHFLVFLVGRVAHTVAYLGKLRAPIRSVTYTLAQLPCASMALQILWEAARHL

[11] = biological target: T2, Peroxisome proliferator-activated receptor gamma (Homo sapiens); assay: Activation of human PPARgamma ligand binding domain expressed in COS7 cells assessed as residual activity at 10 uM by luciferase reporter gene assay relative to pioglitazone; assay type: cell-based; details: COS-7
[12] = biological target: T7, Polyunsaturated fatty acid 5-lipoxygenase (Homo sapiens, UniProt P09917); assay: Inhibition of 5-LOX in human PMNL cells assessed as reduction in 5-LOX product formation pre-incubated for 15 mins by HPLC method; assay type: cell-based
T7 sequence (P09917 whole entry): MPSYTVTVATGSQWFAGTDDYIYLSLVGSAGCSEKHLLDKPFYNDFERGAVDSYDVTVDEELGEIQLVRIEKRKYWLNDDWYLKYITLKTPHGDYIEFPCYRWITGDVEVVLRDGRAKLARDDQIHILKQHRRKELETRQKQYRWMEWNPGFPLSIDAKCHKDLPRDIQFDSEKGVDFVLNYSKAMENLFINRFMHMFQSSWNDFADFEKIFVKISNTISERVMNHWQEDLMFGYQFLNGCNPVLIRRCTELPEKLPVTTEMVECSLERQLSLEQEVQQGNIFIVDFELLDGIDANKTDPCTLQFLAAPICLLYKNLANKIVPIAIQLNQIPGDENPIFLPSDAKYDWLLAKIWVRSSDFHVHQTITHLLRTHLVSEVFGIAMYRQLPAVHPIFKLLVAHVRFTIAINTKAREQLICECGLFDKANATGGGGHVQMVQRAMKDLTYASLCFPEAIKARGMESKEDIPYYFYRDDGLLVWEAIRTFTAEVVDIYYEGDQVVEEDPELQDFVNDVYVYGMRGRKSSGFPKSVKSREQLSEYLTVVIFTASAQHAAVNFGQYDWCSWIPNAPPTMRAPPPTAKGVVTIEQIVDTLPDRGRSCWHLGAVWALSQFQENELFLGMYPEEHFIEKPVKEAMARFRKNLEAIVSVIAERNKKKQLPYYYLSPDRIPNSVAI

[13] = biological target: T7, Polyunsaturated fatty acid 5-lipoxygenase; assay: Inhibition of 5-LOX in human PMNL cells assessed as reduction in 5-LOX product formation pre-incubated for 15 mins by HPLC based cell-free assay

CCCCC(Sc1nc(Cl)cc(Nc2nc(-c3ccc(Cl)cc3)cs2)n1)C(=O)O (centres undefined)
Activity [1]: inactive | Activity [2]: 136% | Activity [3]: 57% | EC50 [4]: 6.5 µM | EC50 [5]: 7.6 µM

CCCCCCC(Sc1nc(Cl)cc(Nc2nc(-c3ccc4c(c3)CCCC4)cs2)n1)C(=O)O (centres undefined)
Activity [2]: 107% | Activity [6]: inactive | Activity [7]: 52.9% | EC50 [5]: 4.1 µM

CCCCCCC(Sc1nc(Cl)cc(Nc2nc3c(s2)CCc2cc(OC)ccc2-3)n1)C(=O)O (centres undefined)
Activity [2]: 86% | Activity [6]: inactive | Activity [3]: 229% | EC50 [4]: 5.4 µM | EC50 [5]: 3.7 µM

Cc1cccc(Nc2cc(Cl)nc(SC(C(=O)O)c3cccc4ccccc34)n2)c1C (centres undefined)
inhibition [8]: inactive | IC50 [5]: 6.2 µM

CCCCCCC(Sc1nc(Cl)cc(Nc2nc(-c3ccc(F)cc3F)cs2)n1)C(=O)O (centres undefined)
Activity [1]: inactive | Activity [2]: 145% | Activity [8]: 18% | EC50 [5]: 3.6 µM

CCCCCCC(Sc1nc(Cl)cc(Nc2ccc3ncccc3c2)n1)C(=O)O (centres undefined)
IC50 [4]: 2.2 µM | IC50 [5]: 3.5 µM

CCCCCCC(Sc1nc(Cl)cc(Nc2nc(-c3ccccc3)cs2)n1)C(=O)O (centres undefined)
Activity [1]: inactive | Activity [2]: 108% | Activity [9]: 55.4% | EC50 [5]: 5.7 µM

CCCCCCC(Sc1nc(Cl)cc(Nc2nc(-c3ccc(C)cc3)cs2)n1)C(=O)O (centres undefined)
Activity [1]: inactive | Activity [2]: 139% | Activity [3]: 125% | EC50 [4]: 8.2 µM | EC50 [5]: 7.2 µM

CCCCCCC(Sc1nc(Cl)cc(Nc2nc(-c3ccc([N+](=O)[O-])cc3)cs2)n1)C(=O)O (centres undefined)
Activity [1]: inactive | Activity [2]: 130% | Activity [3]: 89.4% | EC50 [4]: 2.9 µM | EC50 [5]: 3.4 µM

CCC(Sc1nc(Cl)cc(Nc2nc(-c3ccc(Cl)cc3)cs2)n1)C(=O)O (centres undefined)
Activity [1]: inactive | Activity [2]: 95% | Activity [3]: 51% | EC50 [4]: 3.6 µM | EC50 [5]: 3.9 µM

CCCCCCC(Sc1nc(Cl)cc(Nc2ccc(-c3ccc(C#N)cc3)cc2)n1)C(=O)O (centres undefined)
IC50 [4]: 0.19 µM | IC50 [5]: 1.5 µM

CCCCCCC(Sc1nc(Cl)cc(Nc2nc(-c3ccc(Cl)cc3)cs2)n1)C(=O)O (centres undefined)
Activity [1]: inactive | Activity [2]: 90% | Activity [3]: 57% | EC50 [4]: 6.6 µM | EC50 [5]: 6.4 µM

CCCCCCC(Sc1nc(Cl)cc(Nc2nc(-c3ccc(Br)cc3)c(C)s2)n1)C(=O)O (centres undefined)
Activity [2]: 144% | Activity [6]: inactive | Activity [3]: 102% | EC50 [4]: 3.9 µM | EC50 [5]: 3.8 µM

CCCCCCC(Sc1nc(Cl)cc(Nc2nc(-c3ccccc3)c(C)s2)n1)C(=O)O (centres undefined)
Activity [1]: inactive | Activity [2]: 99% | Activity [9]: 23% | EC50 [5]: 2.3 µM

CCCCCCC(Sc1nc(Cl)cc(Nc2nc(-c3ccc(C(=O)O)cc3)cs2)n1)C(=O)O (centres undefined)
IC50 [10]: > 10 µM | Activity [1]: inactive | Activity [11]: inactive | IC50 [12]: > 10 µM | IC50 [13]: > 10 µM | Activity [8]: inactive

O=C(O)CSc1nc(Cl)cc(Nc2nc(-c3ccc(Cl)cc3)cs2)n1
Activity [1]: inactive | Activity [11]: 63% | Activity [8]: 24.7%

CCCCCCC(Sc1nc(Cl)cc(Nc2nc(-c3ccc(F)c(F)c3)cs2)n1)C(=O)O (centres undefined)
Activity [1]: inactive | Activity [2]: 94% | Activity [3]: 70% | EC50 [4]: 5.7 µM | EC50 [5]: 2.9 µM

CCCCCCC(Sc1nc(Cl)cc(Nc2cccc(C)c2C)n1)C(=O)O (centres undefined)
IC50 [4]: 1 µM | IC50 [5]: 3.6 µM

CCCCCCC(Sc1nc(Cl)cc(Nc2nc(-c3ccc4ccccc4c3)cs2)n1)C(=O)O (centres undefined)
Activity [1]: inactive | Activity [2]: 78% | Activity [9]: 37% | EC50 [5]: 1.3 µM

O=C(O)CSc1nc(OCCc2ccccc2)cc(OCCc2ccccc2)n1
inhibition [8]: inactive | IC50 [5]: 3.7 µM
